Laboratory results reported in article PMC4533973, “Synthesis and Evaluation of Chloramphenicol Homodimers: Molecular Target, Antimicrobial Activity, and Toxicity against Human Cells” (PLoS ONE, 2015).
Where two headings read alike, the source gives them in different places.

Assays:
[1] = molecular target: ribosome; parameters: method as in PMID 14654696; details: read-out: K i, cryptic low-affinity site (entrance to the exit tunnel); cited from earlier work
[2] = test system: Jurkat cells; assay: Toxicity assays in Jurkat cells (cell counting, necrosis and apoptosis by flow cytometry); assay type: cell-based, Human; details: 60 μM; flow cytometry
Protocol: Fig 8 Toxicity assays in Jurkat cells. Jurkat cells were adjusted to 1×10^9 cells/L in RPMI-1640 medium containing 1% Penicillin/Streptomycin and 10% fetal bovine serum. The cells were grown in triplicate in the presence or absence of compound 5 at the indicated concentrations for 4 days at 37°C, under a humidified 5% CO2 atmosphere. CAM was used as a reference compound. For cell necrosis and apoptosis assays, samples (10^6 cells) were collected daily and determined by flow cytometry. Apoptotic and necrotic cells were expressed as a percentage of total cells.
Human leukemic cell lines, HS-Sultan (Burkitt’s lymphoma), Jurkat (T-cell acute lymphoblastic leukemia), and U937 (histiocytic lymphoma), were adjusted to 1×10^9 cells/l in RPMI-1640 medium supplemented with 10% fetal bovine serum and 1% penicillin/streptomycin. The cells were grown in triplicate in the absence (control cultures) or presence of CAM or CAM dimers for 4 days at 37°C, under a humidified 5% CO2 atmosphere. The medium was changed daily; CAM or CAM dimer addition was repeated after medium change. Aliquots were collected daily and counted in a CELL-DYN 3700 Hematology Analyzer. For cell necrosis and apoptosis assays, samples (10^6 cells) were collected and determined using the Annexin V-PE Apoptosis Detection Kit I (BD Pharmingen) for flow cytometry, according to the manufacturers’ instructions. Flow cytometry data were analyzed using the FlowJo flow cytometry analysis software. Necrotic and apoptotic cells were expressed as a percentage of total cells.

[3] = test system: Escherichia coli ribosomes; parameters: method as in earlier work; details: equilibrium dialysis, cited from earlier work
[4] = test system: P. aeruginosa (GRE5288); assay: Antibacterial activity (growth inhibition, EC50); assay type: cell-based, Pseudomonas aeruginosa
Text: (§1) A.S. Mankin (University of Illinois). E. coli ΔtolC strain BL21 DE3 with impaired AcrAB-TolC, a proton-dependent MDR efflux pump causing multidrug resistance, was offered by Dr D.N. Wilson (University of Munich) and included in our study to test if this mechanism of resistance affects the efficacy of CAM dimers. […] I. Spiliopoulou (National Reference Laboratory for Staphylococci, School of Medicine, University of Patras, Greece). Finally, E. coli strain Rosetta(DE3)pLysS, containing a chloramphenicol resistant gene in the pLysS plasmid, was purchased from Novagen and was also included in our study. Briefly, S. aureus or E. coli cells (200 μl of a 0.700 OD560 preculture) containing wild-type or mutant ribosomes were added in 3.8 ml of LB (Luria-Bertani) medium and grown at 37°C in the presence or absence of CAM or CAM dimers until the optical density of the control culture (grown in the absence of drug) reached the value 0.700 at 560 nm. For E. faecium and P. aeruginosa cultures, TSB (Tryptic Soy Broth) medium was used, instead of LB medium, in order to achieve exponential doubling times between 25 and 35 minutes. From dose-response curves, the half-maximal effective concentration (EC50) for each compound and strain was estimated. EC50 represents the molar concentration of a compound that produces 50% of the maximal possible effect. The EC50 values were mathematically determined by non linear regression fitting of the observed culture optical-density values, expressed as the percentage of 0.700 (y), into Hill Equation, y=min+max−min/1+(x/EC50)^−n where min and max are the lowest and highest observed values of the culture optical density, respectively, x the concentration of the tested compound, and n the Hill coefficient that represents the largest absolute value of the curve slope. EC50 is equal to the x- value of the sigmoid’s midpoint. Fitting was performed using the Four Parameter Logistic Curve of the SigmaPlot Program Version 11.0 (Systat Software, Inc) for Exact Graphs and Data Analysis.

[5] = test system: E. coli (WT); assay: Antibacterial activity (growth inhibition, EC50); assay type: cell-based, Escherichia coli
Text: as §1

[6] = test system: E. coli (A2058G); assay: Antibacterial activity (growth inhibition, EC50); assay type: cell-based, Escherichia coli; details: Escherichia coli
Text: as §1

[7] = test system: E. coli (ΔtolC); assay: Antibacterial activity (growth inhibition, EC50); assay type: cell-based, Escherichia coli
Text: as §1

[8] = test system: E. coli (A2503C); assay: Antibacterial activity (growth inhibition, EC50); assay type: cell-based, Escherichia coli; details: Escherichia coli
Text: as §1

[9] = test system: E. coli Rosetta(DE3)pLysS; assay: Antibacterial activity (growth inhibition, EC50); assay type: cell-based, Escherichia coli; details: Escherichia coli
Text: as §1

[10] = test system: post-translocation ribosomal complex (complex C) derived from E. coli; parameters: method as in Xaplanteri et al., [6]; details: ref Xaplanteri et al., [6], cited from earlier work
[11] = test system: E. faecium (GRE5152); assay: Antibacterial activity (growth inhibition, EC50); assay type: cell-based; details: Enterococcus faecium
Text: as §1

[12] = test system: MRSA (GRE2691); assay: Antibacterial activity (growth inhibition, EC50); assay type: cell-based; details: Staphylococcus aureus
Text: as §1

[13] = test system: MRSA (GRE2272); assay: Antibacterial activity (growth inhibition, EC50); assay type: cell-based; details: Staphylococcus aureus
Text: as §1

[14] = test system: S. aureus (WT); assay: Antibacterial activity (growth inhibition, EC50); assay type: cell-based; details: Staphylococcus aureus
Text: as §1

Q: What does the source list for `O=C(N[C@H](CO)[C@H](O)c1ccc([N+](=O)[O-])cc1)C(Cl)Cl` [CAM, chloramphenicol]?
A: Ki [1]: ~300 µM; apoptosis, expressed as a percentage of total cells [2]: did not induce any necrosis/apoptosis effect; necrosis [2]: did not induce any necrosis/apoptosis effect; Kd ([3]; read-out: K D, high affinity site): 2 µM; Kd ([3]; read-out: K D, low affinity site): 200 µM; fold higher EC50 value than wild-type E. coli ([4]; P. aeruginosa versus wild-type E. coli): 6 fold; EC50 ([4]; Pseudomonas aeruginosa): 25.6 ± 2.2 µM; EC50 ([5]; Escherichia coli, LB medium, 37°C, OD560): 4.4 ± 0.2 µM; EC50(cell growth)/IC50(puro) ([5]; wild-type E. coli, IC50(puro) calculated from Ki* at 2 mM puromycin): 0.84 ± 0.07; EC50 [6]: 15.9 ± 1.1 µM; fold more sensitive than wild-type E. coli ([7]; E. coli BL21 DE3 (ΔtolC) versus wild-type E. coli): approximately 2 fold; EC50 ([7]; Escherichia coli, BL21-DE3): 2.2 ± 0.1 µM; EC50 [8]: 24.9 ± 2.5 µM; EC50 [9]: 115 ± 16.3 µM; Ki ([10]; encounter complex CI): 3.1 ± 0.3 µM; Ki ([10]; overall inhibition constant): 0.88 ± 0.07 µM; k off [10]: 0.0165 ± 0.00067 s⁻¹; EC50 [11]: 3.5 ± 0.3 µM; EC50 [12]: 12.8 ± 1.5 µM; EC50 [13]: 8.4 ± 0.7 µM; EC50 [14]: 2.9 ± 0.1 µM
